From patent US20250197864A1, “LNCRNA TRANSCRIPTS IN MELANOMAGENESIS” (The Regents of the University of California, priority 2021, published 2025) come the findings set out here.

Series [1] has as its system AV5 primary melanoma cell line. The series is described as follows: Cell viability assay (ATP quantitation). Format: cell-based, human. The conditions noted are these: 50 nM, 5 days (120 hrs), vs non-targeting control. As for the experimental part: (§1) EsiRNA, siRNA and ASO GapmeRs were transfected in a final concentration of 50 nM unless mentioned otherwise and the transfection reagent Lipofectamine 3000 (2 ul/ml) was added according to the manufacturer's instructions.
(§2) Dependent on cell doubling time, 0.7-2×10^^3 cells were seeded in 96 well plates. 1 day after seeding cells were incubated in media with oligonucleotide concentration and/or MEKi and transfection reagent. 3 (synergy experiments) or 5 (solely ASO) days after transfection Total luminescence was measured on the SynergyHT plate reader (BioTek) using Gen5 software.

The subject of the next series is D04 melanoma cell line. The series is described as follows: Cell viability assay (ATP quantitation). As to conditions: 50 nM, 5 days (120 hrs), vs non-targeting control. It is filed as cell-based, human. As for the experimental part: as §1, §2
For series [2], the system named is Hs852.T primary melanoma cell line. Nature of the series: Cell viability assay (ATP quantitation). Format: cell-based, human. As to conditions: 50 nM, 5 days (120 hrs), vs non-targeting control. As for the experimental part: as §1, §2
The test system of the next series is MM415 melanoma cell line. Nature of the series: Cell viability assay (ATP quantitation). As to conditions: 50 nM, 5 days (120 hrs), vs non-targeting control. Format: cell-based, human. The method, then: as §1, §2
Series [3] relates to Sk-Mel-2 melanoma cell line. The series is described as follows: Cell viability assay (ATP quantitation). It is filed as cell-based, human. As to conditions: 50 nM, 5 days (120 hrs), vs non-targeting control. As for the experimental part: as §1, §2
Series [4] relates to Sk-Mel-28 melanoma cell line. The series is described as follows: Cell viability assay (ATP quantitation). It is filed as cell-based, human. As to conditions: 50 nM, 5 days (120 hrs), vs non-targeting control. As for the experimental part:
as §1, §2

The subject of the next series is VMM39 melanoma cell line. The series is described as follows: Cell viability assay (ATP quantitation). It is filed as cell-based, human. As to conditions: 50 nM, 5 days (120 hrs), vs non-targeting control. The method, then:
as §1, §2

Series [5] deals with WM1366 melanoma cell line. The series is described as follows: Cell viability assay (ATP quantitation). It is filed as cell-based, human. As to conditions: 50 nM, 5 days (120 hrs), vs non-targeting control. The method, then:
as §1, §2

The subject of series [6] is WM3211 melanoma cell line. The series is described as follows: Cell viability assay (ATP quantitation). Format: cell-based, human. As to conditions: 50 nM, 5 days (120 hrs), vs non-targeting control. As for the experimental part:
as §1, §2

Series [7] has as its system WM3629 melanoma cell line. Nature of the series: Cell viability assay (ATP quantitation). Format: cell-based, human. As to conditions: 50 nM, 5 days (120 hrs), vs non-targeting control. As for the experimental part:
as §1, §2

In series [8] the test system is A-172 Glioblastoma cell line. Nature of the series: Cell viability assay (ATP quantitation). It is filed as cell-based. The conditions noted are these: 50 nM, 5 days, vs non-targeting control. As for the experimental part: as §1, §2
For series [9], the system named is H1299 lung cancer cell line. Nature of the series: Cell viability assay (ATP quantitation). As to conditions: 50 nM, 5 days, vs non-targeting control. Format: cell-based. The method, then:
as §1, §2

The test system of series [10] is H82 lung cancer cell line. The series is described as follows: Cell viability assay (ATP quantitation). The conditions noted are these: 50 nM, 5 days, vs non-targeting control. Format: cell-based. As for the experimental part:
as §1, §2

The test system of series [11] is H929 multiple myeloma cell line. Nature of the series: Cell viability assay (ATP quantitation). Format: cell-based. The conditions noted are these: 50 nM, 5 days, vs non-targeting control. The method, then:
as §1, §2

Series [12] concerns HCT116 colon carcinoma cell line. The series is described as follows: Cell viability assay (ATP quantitation). As to conditions: 50 nM, 5 days, vs non-targeting control. It is filed as cell-based. The method, then:
as §1, §2

In series [13] the test system is L363 multiple myeloma cell line. Nature of the series: Cell viability assay (ATP quantitation). Format: cell-based. As to conditions: 50 nM, 5 days, vs non-targeting control. As for the experimental part:
as §1, §2

For another series, the system named is MM485 melanoma cell line. The series is described as follows: Cell viability assay (ATP quantitation). The conditions noted are these: 50 nM, 5 days, vs non-targeting control. Format: cell-based. As for the experimental part: as §1, §2
The subject of series [14] is SW1271 lung cancer cell line. The series is described as follows: Cell viability assay (ATP quantitation). The conditions noted are these: 50 nM, 5 days, vs non-targeting control. Format: cell-based. The method, then: as §1, §2
Series [15] concerns SW480 colon carcinoma cell line. Nature of the series: Cell viability assay (ATP quantitation). It is filed as cell-based. As to conditions: 50 nM, 5 days, vs non-targeting control. The method, then:
as §1, §2

The test system of series [16] is Sk-Mel-5 melanoma cell line. The series is described as follows: Cell viability assay (ATP quantitation). It is filed as cell-based. The conditions noted are these: 50 nM, 5 days, vs non-targeting control. The method, then:
as §1, §2

The subject of series [17] is Sk-N-AS Neuroblastoma cell line. The series is described as follows: Cell viability assay (ATP quantitation). It is filed as cell-based. As to conditions: 50 nM, 5 days, vs non-targeting control. As for the experimental part: as §1, §2
Series [18] has as its system T98G Glioblastoma cell line. The series is described as follows: Cell viability assay (ATP quantitation). It is filed as cell-based. The conditions noted are these: 50 nM, 5 days, vs non-targeting control. As for the experimental part:
as §1, §2

Series [19] has as its system U138-MG Glioblastoma cell line. Nature of the series: Cell viability assay (ATP quantitation). It is filed as cell-based. As to conditions: 50 nM, 5 days, vs non-targeting control. The method, then:
as §1, §2

The subject of series [20] is U20S osteosarcoma cell line. Nature of the series: Cell viability assay (ATP quantitation). Format: cell-based. The conditions noted are these: 50 nM, 5 days, vs non-targeting control. As for the experimental part:
as §1, §2

In series [21] the test system is U87-MG Glioblastoma cell line. Nature of the series: Cell viability assay (ATP quantitation). It is filed as cell-based. As to conditions: 50 nM, 5 days, vs non-targeting control. As for the experimental part: as §1, §2
Series [22] concerns WM3060 melanoma cell line. Nature of the series: Cell viability assay (ATP quantitation). The conditions noted are these: 50 nM, 5 days, vs non-targeting control. Format: cell-based. The method, then: as §1, §2
Series [23] deals with D04RM trametinib resistant melanoma cell line. Nature of the series: Cell viability assay (ATP quantitation). Format: cell-based. The conditions noted are these: 50 nM, 5 days, vs non-targeting control.
Excerpt: (§3) Human melanoma cell line VMM39 was purchased from American Type Culture Collection (ATCC). Human melanoma cell lines D04, MM415, WM1366, WM3629, WM3211, Sk-Mel-2 and Sk-Mel-28 were a generous gift from Boris Bastian at the University of California, San Francisco. Primary human melanoma cell line Hs852.T was purchased from the Cell Culture Core Facility (CCCF) at the University of California, San Francisco. Primary human melanoma cell line AV5 was obtained from metastasis of a melanoma patient. All experimental protocols were approved by UCSF Human Research Protection Program Institutional Review Board (IRB #12-0948), all patients signed informed consent, and methods were carried out in accordance with relevant guidelines and regulations. Resistant cell lines DO4RM, MM415RM, Sk-Mel-2RM and WM3629RM were established as previously described. [Sanlorenzo, M. et al., The lincRNA MIRAT binds to IQGAPI and modulates the MAPK pathway in NRAS mutant melanoma. Sci Rep 8, 10902 (2018).] Primary human melanocytic cell lines (PHM) from infant foreskin of five healthy donors were available in our cell repository and pooled. Melanoma cell lines were maintained in RPMI 1640 media supplemented with 10% (vol/vol) heat inactivated fetal bovine serum. Melanocytes were maintained in M254 medium with HMGS supplements (1× final solution). All cell lines were incubated at 37° C. under 5% CO2.
as §1, §2

The test system of series [24] is MM415RM trametinib resistant melanoma cell line. The series is described as follows: Cell viability assay (ATP quantitation). It is filed as cell-based. As to conditions: 50 nM, 5 days, vs non-targeting control.
Excerpt: as §3, §1, §2

Series [25] concerns Sk-Mel-2-RM trametinib resistant melanoma cell line. Nature of the series: Cell viability assay (ATP quantitation). It is filed as cell-based. The conditions noted are these: 50 nM, 5 days, vs non-targeting control.
Excerpt: as §3, §1, §2

Series [26] concerns WM3629RM trametinib resistant melanoma cell line. Nature of the series: Cell viability assay (ATP quantitation). It is filed as cell-based. As to conditions: 50 nM, 5 days, vs non-targeting control.
Excerpt: as §3, §1, §2

The next series concerns Caspase 3+7. The series is described as follows: Caspase Glo 3/7 assay in D04 cell line. It is filed as cell-based, human. As to conditions: ASO 50 nM, 1 day, vs control ASOs. The method, then: Dependent on cell doubling time, 2-3×10^^3 cells were seeded in 96 well plates. 1 day after seeding cells were incubated in media with 50 nM oligonucleotide concentration and transfection reagent. 1 day after transfection Total luminescence was measured on the SynergyHT plate reader (BioTek) using Gen5 software. Experiments were performed in quadruplicates.

“ATCATCTGGATTAGTG (chemistry not given here) [SEQ ID NO: 14, Antisense oligonucleotide targeting BX470102.3-008]”: the cell viability decrease result (in [1]; in the series with D04 melanoma cell line; in series [2]; in the series on MM415 melanoma cell line; in series [3]; in series [4]) was “significant cell viability decrease” throughout. For the same sequence, the cell viability decrease result (with VMM39 melanoma cell line; in [5]; in series [6]; in series [7]; in [8]; in [9]) was “significant cell viability decrease” throughout. In addition, the cell viability decrease entry (in series [10]; in series [11]; in [12]; in series [13]; in the series with MM485 melanoma cell line; in series [14]) was “significant cell viability decrease” in each case. For the same sequence, the cell viability decrease result in [15], in series [16], in series [17], in [18], in [19] and in series [20] was “significant cell viability decrease” in each case. The cell viability decrease result in series [21], in series [22], in [23], in series [24], in series [25] and in series [26] was “significant cell viability decrease” throughout.

Regarding “GATCATTTAATTTGAC (QIAGEN GapmeR, modification pattern not given here) [SEQ ID NO: 18, Antisense oligonucleotide targeting RP11-7011.3-001, 002 and 003]”, the cell viability decrease entry (in the series on D04 melanoma cell line; in [2]; with MM415 melanoma cell line; in series [3]; in series [4]; in the series with VMM39 melanoma cell line) was “significant cell viability decrease” in each case. Further, the cell viability decrease entry in [5], in series [6], in [7], in series [8], in series [9] and in series [11] was “significant cell viability decrease” throughout. Also, the cell viability decrease entry (in series [12]; in series [13]; in the series on MM485 melanoma cell line; in series [14]; in [15]; in series [16]) was “significant cell viability decrease” throughout. The cell viability decrease entry in series [17], in series [18], in series [19], in [20], in series [21] and in series [22] was “significant cell viability decrease” each time. In addition, the cell viability decrease entry in series [23], in [24], in [25] and in series [26] was “significant cell viability decrease” in each case.

Regarding “GACCGTAGTTAGAAGG (GapmeR, chemically modified, pattern not given here) [SEQ ID NO: 48, GapmeR antisense oligonucleotide targeting HNRNPA2/B1]”, the cell viability decrease result in the series on D04 melanoma cell line and in the series on D04 melanoma cell line (listed as hnRNPA2/B1i) was “significant cell viability decrease” each time. In addition, in the series on Caspase 3+7, the “Caspase-3 &-7 activity increase” value is on record as 1.7 fold.
